Laboratory results as given in US20120214842A1, “METHODS FOR TREATING DISEASES OF THE RETINA” (priority 2011, published 2012).

System: ABCA4/RDH8 mouse model
Assay: Light-induced retinal degeneration in ABCA4/RDH8 mouse model (ERG, retinal histology, SLO autofluorescence)
Assay type: in vivo
Settings: 10 mg/kg twice daily IP, 10,000 lux light for 30 min on day 3
Protocol: The invention is illustrated by the following example. The compound of the invention was tested with the following experimental protocol: (1) Mice are dosed twice daily at 10 mg/kg or vehicle, IP. (2) On day 3, mice are exposed to 10,000 lux light for 30 min, 2 h after the first dosing and 6 h before the last dosing. (3) On day 11 ERG measurements are taken. (4) On day 12, mice are sacrificed for retinal histology. The ERG functional assay measures the functional integrity of retina. […] In the model, autofluorescence appears as the retina degenerates.

Cn1cc(-c2ccncc2)c(-c2ccc(OCc3ccc4ccccc4n3)cc2)n1 [MP-10, 2-[4-(1-methyl-4-pyridin-4-yl-1H-pyrazol-3-yl)-phenoxymethyl]-quinoline]
loss of ERG function (functional integrity of retina) (ERG on day 11, vs vehicle, FIG. 1): prevents loss of ERG function
autofluorescence in retina measured by SLO (FIG. 3): reduces the appearance of autofluorescence
photoreceptor cell loss (retinal histology grade; higher grade indicates more loss) (histology on day 12, FIG. 2): protects photoreceptor cell loss
